This assay has as its target T1, recombinant IRAK-4 kinase (Homo sapiens, UniProt Q9NWZ3).
T1 construct: purchased Millipore, USA
T1 sequence (Q9NWZ3 1-460): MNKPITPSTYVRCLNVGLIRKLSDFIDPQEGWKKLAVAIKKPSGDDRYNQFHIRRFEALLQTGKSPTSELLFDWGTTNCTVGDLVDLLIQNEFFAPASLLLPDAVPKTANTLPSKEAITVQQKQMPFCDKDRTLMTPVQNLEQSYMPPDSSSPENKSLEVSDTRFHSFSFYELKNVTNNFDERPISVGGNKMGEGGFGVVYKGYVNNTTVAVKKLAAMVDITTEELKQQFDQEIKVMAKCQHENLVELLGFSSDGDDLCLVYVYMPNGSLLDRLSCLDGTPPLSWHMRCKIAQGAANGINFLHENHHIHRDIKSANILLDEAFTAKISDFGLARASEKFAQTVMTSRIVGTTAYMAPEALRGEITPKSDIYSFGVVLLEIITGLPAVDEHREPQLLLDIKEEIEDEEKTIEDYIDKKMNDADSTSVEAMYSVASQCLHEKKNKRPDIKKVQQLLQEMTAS
Briefly: IRAK-4 biochemical assay (TR-FRET). To be noted: IRAK-4 enzyme, 20 μM ATP; for inhibition at 1 µM: compound at 1 μM; for IC50: dose response; for inhibition at 0.1 µM: compound at 0.1 μM. As for the experimental part:
Compounds were tested for their potential to inhibit IRAK-4 enzyme in a TR-FRET assay using recombinant IRAK-4 kinase from Millipore, USA. The assay buffer was 50 mM Tris-HCl pH 7.5, 20 mM MgCl2, 1 mM EGTA, 2 mM DTT, 3 mM MnCl2 and 0.01% Tween 20.5 ng of IRAK-4 kinase was used for the assay. After pre-incubation of enzyme with test compound for 30 minutes at room temperature, a substrate mixture containing 100 nM Biotin Histone H3 (Millipore, USA) and 20 μM ATP (Sigma, USA) was added and the reaction was incubated for 30 min. Post incubation, the reaction was stopped by the addition of stop mix containing 40 mM EDTA, 1 nM of Europium-Anti-Phospho-Histone H3 (Ser10) antibody (Perkin Elmer, USA) and 20 nM SureLight Allophycocyanin-Streptavidin (Perkin Elmer, USA). The fluorescence emission at 615 nm and 665 nm were measured at an excitation of 340 nm and the percent inhibition was estimated from the ratio of the fluorescence intensities [(F665/F615)×10000]. […] The IC50 values were estimated by fitting the dose-response data to sigmoidal dose response (variable slope), curve fitting program using Graphpad Prism software Version 6.01.

Counter-ions that a name gives are not always drawn.

These results are taken from US20170152263A1, “Substituted Indazole Compounds as IRAK4 Inhibitors” (AURIGENE DISCOVERY TECHNOLOGIES LIMITED, priority 2014, published 2017).

Consider `Cc1cc(-c2nc(C(=O)Nc3cc4c(cnn4C)cc3N3CCCCC3)co2)ccn1` [Example 1, N-(1-methyl-5-(piperidin-1-yl)-1H-indazol-6-yl)-2-(2-methylpyridin-4-yl)oxazole-4-carboxamide hydrochloride], for which the inhibition at 1 µM is 96% and the IC50 is below 100 nM.

Regarding `Cc1cc(-c2nc(C(=O)Nc3cc4nn(C)cc4cc3N3CCCCC3)co2)ccn1` [Example 2, N—(2-methyl-5-(piperidin-1-yl)-2H-indazol-6-yl)-2-(2-methylpyridin-4-yl)oxazole-4-carboxamide hydrochloride], the inhibition at 1 µM amounted to 98% and the IC50 is below 100 nM.

As for `Cn1cc2cc(N3CCCCC3)c(NC(=O)c3cccc(N4CC[C@H](O)C4)n3)cc2n1` [Example 3, (S)-6-(3-hydroxypyrrolidin-1-yl)—N—(2-methyl-5-(piperidin-1-yl)-2H-indazol-6-yl)picolinamide], the inhibition at 0.1 µM is 90%, the inhibition at 1 µM amounted to 73% and the IC50 is above 250 nM.

On to `Cn1ncc2cc(N3CCCCC3)c(NC(=O)c3coc(N4CC[C@H](N)C4)n3)cc21` [Example 4, (S)-2-(3-aminopyrrolidin-1-yl)—N—(1-methyl-5-(piperidin-1-yl)-1H-indazol-6-yl)oxazole-4-carboxamide], for which the inhibition at 1 µM was 84% and the IC50 is 100 to 250 nM.

For the compound `Cn1cc2cc(N3CCCCC3)c(NC(=O)c3coc(N4CC[C@H](N)C4)n3)cc2n1` [Example 5, (S)-2-(3-aminopyrrolidin-1-yl)—N—(2-methyl-5-(piperidin-1-yl)-2H-indazol-6-yl)oxazole-4-carboxamide], the inhibition at 0.1 µM is 95%, the inhibition at 1 µM came out at 82% and the IC50 was above 250 nM.

In the case of `Cn1cc2cc(N3CCCCC3)c(NC(=O)c3coc(N4CC[C@H](O)C4)n3)cc2n1` [Example 6, (S)-2-(3-hydroxypyrrolidin-1-yl)—N—(2-methyl-5-(piperidin-1-yl)-2H-indazol-6-yl)oxazole-4-carboxamide], the inhibition at 0.1 µM was 96%, the inhibition at 1 µM was 90% and the IC50 was 100 to 250 nM.

Consider `Cn1cc2cc(N3CCCCC3)c(NC(=O)c3cccc(N4CC[C@H](N)C4)n3)cc2n1` [Example 7, (S)-6-(3-aminopyrrolidin-1-yl)—N—(2-methyl-5-(piperidin-1-yl)-2H-indazol-6-yl)picolinamide], for which the inhibition at 0.1 µM stood at 93%, the inhibition at 1 µM came to 83% and the IC50 was above 250 nM.

`Cn1ncc2cc(N3CCCCC3)c(NC(=O)c3cccc(N4CC[C@H](N)C4)n3)cc21` [Example 8, (S)-6-(3-aminopyrrolidin-1-yl)—N—(1-methyl-5-(piperidin-1-yl)-1H-indazol-6-yl)picolinamide]: the inhibition at 0.1 µM worked out at 90%, the inhibition at 1 µM is 56% and the IC50 was above 250 nM.

For the compound `Cn1ncc2cc(N3CCCCC3)c(NC(=O)c3cccc(N4CC[C@H](O)C4)n3)cc21` [Example 9, (S)-6-(3-hydroxypyrrolidin-1-yl)—N—(1-methyl-5-(piperidin-1-yl)-1H-indazol-6-yl)picolinamide], the inhibition at 0.1 µM worked out at 83%, the inhibition at 1 µM worked out at 78% and the IC50 was above 250 nM.

For the compound `Cn1ncc2cc(N3CCCCC3)c(NC(=O)c3coc(N4CC[C@H](O)C4)n3)cc21` [Example 10, (S)-2-(3-hydroxypyrrolidin-1-yl)—N—(1-methyl-5-(piperidin-1-yl)-1H-indazol-6-yl)oxazole-4-carboxamide], the inhibition at 0.1 µM was determined as 95%, the inhibition at 1 µM stood at 91% and the IC50 was below 100 nM.

Turning to `Cc1cc(-c2nc(C(=O)Nc3cc4c(cnn4C)cc3N3CC[C@H](O)C3)co2)ccn1` [Example 11, (S)—N—(5-(3-hydroxypyrrolidin-1-yl)-1-methyl-1H-indazol-6-yl)-2-(2-methylpyridin-4-yl)oxazole-4-carboxamide hydrochloride], the inhibition at 0.1 µM was found to be 95%, the inhibition at 1 µM was determined as 98% and the IC50 was below 100 nM.

Take `Cc1cc(-c2nc(C(=O)Nc3cc4c(cnn4C)cc3N3CCCC(O)C3)co2)ccn1` (stereo not shown) [Example 12, N—(5-(3-hydroxypiperidin-1-yl)-1-methyl-1H-indazol-6-yl)-2-(2-methylpyridin-4-yl)oxazole-4-carboxamide hydrochloride]: the inhibition at 0.1 µM worked out at 94% and the IC50 was below 100 nM.

With `Cc1cc(-c2nc(C(=O)Nc3cc4nn(C)cc4cc3N3CCCC(O)C3)co2)ccn1` (stereo not shown) [Example 13, N—(5-(3-hydroxypiperidin-1-yl)-2-methyl-2H-indazol-6-yl)-2-(2-methylpyridin-4-yl)oxazole-4-carboxamide hydrochloride], the inhibition at 0.1 µM is 79% and the IC50 was below 100 nM.

Take `Cc1cc(-c2nc(C(=O)Nc3cc4nn(C)cc4cc3N3CCCC(F)C3)co2)ccn1` (stereo not shown) [Example 14, N—(5-(3-fluoropiperidin-1-yl)-2-methyl-2H-indazol-6-yl)-2-(2-methylpyridin-4-yl)oxazole-4-carboxamide]: the inhibition at 0.1 µM came out at 94%, the inhibition at 1 µM amounted to 96% and the IC50 is below 100 nM.

As to `CC(=O)Nc1cc(-c2nc(C(=O)Nc3cc4c(cnn4C)cc3N3CC[C@H](O)C3)co2)ccn1` [Example 15], the inhibition at 0.1 µM is 83%, the inhibition at 1 µM was determined as 99% and the IC50 is below 100 nM.

As to `Cc1cc(-c2nc(C(=O)Nc3cc4c(cnn4C)cc3N3CCCC(F)C3)co2)ccn1` (stereo not shown) [Example 16, N—(5-(3-fluoropiperidin-1-yl)-1-methyl-1H-indazol-6-yl)-2-(2-methylpyridin-4-yl)oxazole-4-carboxamide], the inhibition at 0.1 µM worked out at 94%, the inhibition at 1 µM turned out to be 99% and the concentration for half-maximal inhibition (IC50) is below 100 nM.

Consider `Cc1cc(-c2nc(C(=O)Nc3cc4c(cnn4C)cc3N3CCC(O)CC3)co2)ccn1` [Example 17, N—(5-(4-hydroxypiperidin-1-yl)-1-methyl-1H-indazol-6-yl)-2-(2-methylpyridin-4-yl)oxazole-4-carboxamide], for which the inhibition at 0.1 µM was 93%, the inhibition at 1 µM was 95% and the IC50 was below 100 nM.

Take `Cn1ncc2cc(N3CC[C@H](O)C3)c(NC(=O)c3coc(-c4ccnc(N)c4)n3)cc21` [Example 18, (S)-2-(2-aminopyridin-4-yl)—N—(5-(3-hydroxypyrrolidin-1-yl)-1-methyl-1H-indazol-6-yl)oxazole-4-carboxamide]: the inhibition at 0.1 µM is 94%, the inhibition at 1 µM was 96% and the IC50 was below 100 nM.

As to `Cc1cc(-c2nc(C(=O)Nc3cc4c(cnn4C)cc3N3CCC(F)CC3)co2)ccn1` [Example 19, N—(5-(4-fluoropiperidin-1-yl)-1-methyl-1H-indazol-6-yl)-2-(2-methylpyridin-4-yl)oxazole-4-carboxamide], the inhibition at 0.1 µM was found to be 94%, the inhibition at 1 µM turned out to be 97% and the IC50 is below 100 nM.

In the case of `Cc1cc(-c2nc(C(=O)Nc3cc4c(cnn4C)cc3N3CCC(CO)CC3)co2)ccn1` [Example 20, N-(5-(4-(hydroxymethyl)piperidin-1-yl)-1-methyl-1H-indazol-6-yl)-2-(2-methylpyridin-4-yl)oxazole-4-carboxamide], the inhibition at 0.1 µM worked out at 96%, the inhibition at 1 µM is 97% and the IC50 is below 100 nM.

Take `Cc1cc(-c2nc(C(=O)Nc3cc4c(cnn4C)cc3N3CC[C@H](O)C3)co2)cc(C)n1` [Example 21, (S)-2-(2,6-dimethylpyridin-4-yl)—N—(5-(3-hydroxypyrrolidin-1-yl)-1-methyl-1H-indazol-6-yl)oxazole-4-carboxamide]: the inhibition at 0.1 µM was found to be 41%, the inhibition at 1 µM was 84% and the IC50 was in the range of 100 to 250 nM.

Consider `Cc1cc(-c2nc(C(=O)Nc3cc4c(cnn4C)cc3N3CC[C@@H](O)C3)co2)ccn1` [Example 22, (R)—N—(5-(3-hydroxypyrrolidin-1-yl)-1-methyl-1H-indazol-6-yl)-2-(2-methylpyridin-4-yl)oxazole-4-carboxamide], for which the inhibition at 0.1 µM is 89%, the inhibition at 1 µM turned out to be 96% and the IC50 is below 100 nM.

Regarding `Cn1ncc2cc(N3CC[C@H](O)C3)c(NC(=O)c3coc(-c4cccnc4N)n3)cc21` [Example 23, (S)-2-(2-aminopyridin-3-yl)—N—(5-(3-hydroxypyrrolidin-1-yl)-1-methyl-1H-indazol-6-yl)oxazole-4-carboxamide], the inhibition at 0.1 µM was determined as 81%, the inhibition at 1 µM amounted to 95% and the IC50 is below 100 nM.
